From patent US8278296B2, “Manipulation of brain CDP-diacylglycerol and uses thereof” (priority 2006, dated 2012)

Columns and labels:
5HT2 receptor = assay: α-methylserotonin-stimulated IP accumulation in tissues prelabeled with [3H]inositol in presence of antidepressants; assay type: cell-based, rat; details: hippocampus, frontal cortex, striatum; 60 min; 5 mM LiCl
inositol phosphates = assay: [3H]inositol phosphate accumulation in rat brain slices; assay type: cell-based; details: monoamine receptor agonists; frontal cortex or hippocampal tissues; 5 mM LiCl; 90 min
CDP-diacylglycerol = assay: [3H]CDP-diacylglycerol accumulation in rat brain slices; assay type: cell-based; details: monoamine receptor agonists; frontal cortex or hippocampal tissues; 5 mM LiCl; 90 min
[1] = system: CDP-diacylglycerol/inositol phosphate; assay: CDP-DG/IP ratio calculated from brain slice data; assay type: cell-based, rat; details: monoamine receptor agonists; frontal cortex or hippocampal tissues
Protocol: FIGS. 9A-9C are ratios of antidepressant-induced CDP-diacylglycerol versus inositol phosphates. The data in FIGS. 1A-1C, 2A-2B, 3A-3C, 4A-4B, and 5A-5C were recalculated by dividing the CDP-diacylglycerol effects of each concentration of each antidepressant agent by the corresponding effects of the agent on inositol phosphate accumulation to yield the CDP-diacylglycerol/inositol phosphate (CDP-DG/IP) ratios shown. […] Data for each agent were analyzed by One-Way ANOVA followed by posthoc Dunnett tests. ^#p<0.05; *p<0.01; compared to the respective control (zero drug concentration).
As used herein, the term “CDP-DG/IP ratio” refers to the relative value of an index which is the quotient of a level of cellular CDP-diacylglycerol divided by a level of inositol phosphate in a tissue or cell or tissue cultures thereof, e.g., a mammalian brain tissue or blood platelets, a human brain tissue or blood platelets, or other cells or tissues having the ability to metabolize CDP-diacylglycerol and phosphoinositides. Levels may be determined, but are not limited to, using molar concentration or a radiolabel.
To determine if antidepressant agents exert differential effects on CDP-DG production compared to PI hydrolysis, the ratios of CDP-DG production relative to the IPs (CDP-DG/IP ratio) in corresponding treatment conditions were examined.
Corresponding CDP-DG ratios were calculated as for the antidepressant agents. […] The ratios of CDP-DG production relative to IP accumulation are shown on the far right of the graphs in FIGS. 10A-10C and FIGS. 11A-11D.

phosphatidylinositides = assay: [3H]inositol phospholipid (phosphatidylinositide) resynthesis in rat brain slices; assay type: cell-based; details: […]; frontal cortex or hippocampal tissues; 5 mM LiCl; 90 min

With `CC(N)Cc1c[nH]c2ccc(O)cc12` (stereo not drawn) [α-methylserotonin] the “IP accumulation induced by agonist by itself” value (5HT2 receptor) was “significant increases”, the “effect on IP accumulation” value (inositol phosphates) was “significantly increased” and the “effect on CDP-DG production” value (CDP-diacylglycerol) was “significantly increased”. For the same compound, the CDP-DG/IP ratio [1] was “no concentration-related increase” and the “effect on PI synthesis” value (phosphatidylinositides) was “significant but relatively small effects”.
